# From patent US8952024B2, “Herbicidal pyrimidone derivatives” (E I du Pont de Nemours and Company, priority 2009, dated 2015)
# System: velvetleaf (Abutilon theophrasti)
# Experiment: Test A pre-/postemergence plant response
# Type: in vivo
# Conditions: Preemergence, 125 g ai/ha; 0 to 100 scale, 0 = no effect, 100 = complete control
# Outline: (§1)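 Pre: directed soil spray on seeded loam/sand blend. Post: same formulation (non-phytotoxic solvent + surfactant) on 2–10 cm plants, 1–2 leaf stage. Greenhouse ~10 d; visual injury score 0–100 vs untreated.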
row,SMILES,"Plant response rating, Velvetleaf"
1,Cc1ccccc1-c1ncc(C(=O)C2=C(O)CCCC2=O)c(=O)n1-c1ccccc1 [Compound 82],50

# Same assay, conditions: Preemergence, 500 g ai/ha; visual injury, 0 to 100 scale (0 no effect, 100 complete control), approx. ten days
row,SMILES,"Plant response rating, Velvetleaf"
1,Cc1ccccc1-c1ncc(C(=O)C2=C(O)CCCC2=O)c(=O)n1-c1ccccc1 [Compound 82],90

# System: wheat (Triticum aestivum)
# Experiment: Test A pre-/postemergence plant response
# Type: in vivo
# Conditions: Postemergence, 125 g ai/ha; 0 to 100 scale where 0 is no effect and 100 is complete control
# Outline: as §1
row,SMILES,"Plant response rating, Wheat"
1,Cc1ccccc1-c1ncc(C(=O)C2=C(O)CCCC2=O)c(=O)n1-c1ccccc1 [Compound 82],0

# Same assay, conditions: Postemergence, 500 g ai/ha; 0 to 100 scale, 0 = no effect, 100 = complete control; approx. ten days
row,SMILES,"Plant response rating, Wheat"
1,Cc1ccccc1-c1ncc(C(=O)C2=C(O)CCCC2=O)c(=O)n1-c1ccccc1 [Compound 82],0

# Same assay, conditions: Preemergence, 125 g ai/ha; 0 to 100 scale, 0 = no effect, 100 = complete control
row,SMILES,"Plant response rating, Wheat"
1,Cc1ccccc1-c1ncc(C(=O)C2=C(O)CCCC2=O)c(=O)n1-c1ccccc1 [Compound 82],0

# Same assay, conditions: Preemergence, 500 g ai/ha; visual injury, 0 to 100 scale (0 no effect, 100 complete control), approx. ten days
row,SMILES,"Plant response rating, Wheat"
1,Cc1ccccc1-c1ncc(C(=O)C2=C(O)CCCC2=O)c(=O)n1-c1ccccc1 [Compound 82],0

# System: winter barley (Hordeum vulgare)
# Experiment: Test B postemergence plant response
# Type: in vivo
# Conditions: 31 g ai/ha, postemergence; scale 0 to 100, 0 is no effect, 100 is complete control
# Outline: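 Visual ratings from 0 (no effect) to 100 (complete control), made against controls 13–15 days after treatment, kept in a greenhouse. Compounds were applied postemergence to potted plants at the 1- to 4-leaf stage (2–18 cm).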
row,SMILES,"Plant response rating, Barley"
1,Cc1ccccc1-c1ncc(C(=O)C2=C(O)CCCC2=O)c(=O)n1-c1ccccc1 [Compound 82],0

# Same assay, conditions: 62 g ai/ha, postemergence; 0 is no effect, 100 is complete control; 13 to 15 days
row,SMILES,Barley plant response rating (0 to 100 scale)
1,Cc1ccccc1-c1ncc(C(=O)C2=C(O)CCCC2=O)c(=O)n1-c1ccccc1 [Compound 82],0

# Same assay, conditions: Postemergence, 125 g ai/ha; visual rating after 13 to 15 days, scale 0 (no effect) to 100 (complete control)
row,SMILES,"Plant response rating, Barley"
1,Cc1ccccc1-c1ncc(C(=O)C2=C(O)CCCC2=O)c(=O)n1-c1ccccc1 [Compound 82],0

# Same assay, conditions: Postemergence, 250 g ai/ha; scale 0 to 100 (0 no effect, 100 complete control)
row,SMILES,"Plant response rating, Barley"
1,Cc1ccccc1-c1ncc(C(=O)C2=C(O)CCCC2=O)c(=O)n1-c1ccccc1 [Compound 82],5

# System: barnyardgrass (Echinochloa crus-galli)
# Experiment: Test B flooded paddy test
# Type: in vivo
# Conditions: 250 g ai/ha; flooded paddy test; visual rating on 0 to 100 scale (0 no effect, 100 complete control) after 13 to 15 days
# Outline: (§2)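 Ratings are visual, 0–100 (100 = complete control), taken versus untreated controls 13 to 15 days after treatment in the greenhouse. Compound went straight into paddy water held 3 cm above soil, applied to 2-leaf-stage plants of four species.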
row,SMILES,"Plant response rating, Flood, Barnyardgrass"
1,Cc1ccccc1-c1ncc(C(=O)C2=C(O)CCCC2=O)c(=O)n1-c1ccccc1 [Compound 82],20

# Same assay, conditions: Flood (flooded paddy test), 62 g ai/ha; scale of 0 to 100 where 0 is no effect and 100 is complete control; 13 to 15 days
row,SMILES,"Plant response rating, Barnyardgrass"
1,Cc1ccccc1-c1ncc(C(=O)C2=C(O)CCCC2=O)c(=O)n1-c1ccccc1 [Compound 82],0

# Same assay, conditions: Flood (flooded paddy test), 125 g ai/ha; scale 0 to 100, 0 is no effect, 100 is complete control; 13 to 15 days
row,SMILES,"Plant response rating, Barnyardgrass"
1,Cc1ccccc1-c1ncc(C(=O)C2=C(O)CCCC2=O)c(=O)n1-c1ccccc1 [Compound 82],15

# Same assay, conditions: Flood, 31 g ai/ha; scale 0 to 100 (0 no effect, 100 complete control)
row,SMILES,Barnyardgrass plant response rating
1,Cc1ccccc1-c1ncc(C(=O)C2=C(O)CCCC2=O)c(=O)n1-c1ccccc1 [Compound 82],0

# System: ducksalad (Heteranthera limosa)
# Experiment: Test B flooded paddy test
# Type: in vivo
# Conditions: 250 g ai/ha; flooded paddy test; visual rating on 0 to 100 scale (0 no effect, 100 complete control) after 13 to 15 days
# Outline: as §2
row,SMILES,"Plant response rating, Flood, Ducksalad"
1,Cc1ccccc1-c1ncc(C(=O)C2=C(O)CCCC2=O)c(=O)n1-c1ccccc1 [Compound 82],20

# Same assay, conditions: Flood (flooded paddy test), 62 g ai/ha; scale of 0 to 100 where 0 is no effect and 100 is complete control; 13 to 15 days
row,SMILES,"Plant response rating, Ducksalad"
1,Cc1ccccc1-c1ncc(C(=O)C2=C(O)CCCC2=O)c(=O)n1-c1ccccc1 [Compound 82],0

# Same assay, conditions: Flood (flooded paddy test), 125 g ai/ha; scale 0 to 100, 0 is no effect, 100 is complete control; 13 to 15 days
row,SMILES,"Plant response rating, Ducksalad"
1,Cc1ccccc1-c1ncc(C(=O)C2=C(O)CCCC2=O)c(=O)n1-c1ccccc1 [Compound 82],0

# Same assay, conditions: Flood, 31 g ai/ha; scale 0 to 100 (0 no effect, 100 complete control)
row,SMILES,Ducksalad plant response rating
1,Cc1ccccc1-c1ncc(C(=O)C2=C(O)CCCC2=O)c(=O)n1-c1ccccc1 [Compound 82],0

# System: rice (Oryza sativa)
# Experiment: Test B flooded paddy test
# Type: in vivo
# Conditions: 250 g ai/ha; flooded paddy test; visual rating on 0 to 100 scale (0 no effect, 100 complete control) after 13 to 15 days
# Outline: as §2
row,SMILES,"Plant response rating, Flood, Rice"
1,Cc1ccccc1-c1ncc(C(=O)C2=C(O)CCCC2=O)c(=O)n1-c1ccccc1 [Compound 82],20

# Same assay, conditions: Flood (flooded paddy test), 62 g ai/ha; scale of 0 to 100 where 0 is no effect and 100 is complete control; 13 to 15 days
row,SMILES,"Plant response rating, Rice"
1,Cc1ccccc1-c1ncc(C(=O)C2=C(O)CCCC2=O)c(=O)n1-c1ccccc1 [Compound 82],0

# Same assay, conditions: Flood (flooded paddy test), 125 g ai/ha; scale 0 to 100, 0 is no effect, 100 is complete control; 13 to 15 days
row,SMILES,"Plant response rating, Rice"
1,Cc1ccccc1-c1ncc(C(=O)C2=C(O)CCCC2=O)c(=O)n1-c1ccccc1 [Compound 82],15

# Same assay, conditions: Flood, 31 g ai/ha; scale 0 to 100 (0 no effect, 100 complete control)
row,SMILES,Rice plant response rating
1,Cc1ccccc1-c1ncc(C(=O)C2=C(O)CCCC2=O)c(=O)n1-c1ccccc1 [Compound 82],0

# System: umbrella sedge (Cyperus difformis)
# Experiment: Test B flooded paddy test
# Type: in vivo
# Conditions: 250 g ai/ha; flooded paddy test; visual rating on 0 to 100 scale (0 no effect, 100 complete control) after 13 to 15 days
# Outline: as §2
row,SMILES,"Plant response rating, Flood, Sedge, Umbrella"
1,Cc1ccccc1-c1ncc(C(=O)C2=C(O)CCCC2=O)c(=O)n1-c1ccccc1 [Compound 82],50

# Same assay, conditions: Flood (flooded paddy test), 62 g ai/ha; scale of 0 to 100 where 0 is no effect and 100 is complete control; 13 to 15 days
row,SMILES,"Plant response rating, Sedge, Umbrella"
1,Cc1ccccc1-c1ncc(C(=O)C2=C(O)CCCC2=O)c(=O)n1-c1ccccc1 [Compound 82],0

# Same assay, conditions: Flood (flooded paddy test), 125 g ai/ha; scale 0 to 100, 0 is no effect, 100 is complete control; 13 to 15 days
row,SMILES,"Plant response rating, Sedge, Umbrella"
1,Cc1ccccc1-c1ncc(C(=O)C2=C(O)CCCC2=O)c(=O)n1-c1ccccc1 [Compound 82],40

# Same assay, conditions: Flood, 31 g ai/ha; scale 0 to 100 (0 no effect, 100 complete control)
row,SMILES,"Sedge, Umbrella plant response rating"
1,Cc1ccccc1-c1ncc(C(=O)C2=C(O)CCCC2=O)c(=O)n1-c1ccccc1 [Compound 82],0
